SMILES strings stand for the structures. Peptide text beside a SMILES is read from it. * marks the point of attachment. 5FAM = O=C1OC2(c3ccc(O)cc3Oc3cc(O)ccc32)c2ccc(C(=O)*)cc21

Data set [1] has as its system cancer stroma (fibrous stroma) of tumor tissue, BxPC3 cells and hMSC transplanted. The experiment in a line: Selective absorption in scirrhous pancreatic cancer model mouse (tissue analysis). Type of data set: in vivo. The following applies: 200 μg intravenous, 30 minutes after injection, FIG. 7B, 7C. From the text: A scirrhous pancreatic cancer model mouse having scirrhous carcinoma that forms abundant cancer stroma was produced in accordance with the method disclosed in Reference Document 1 (Saito K et al., “Stromal mesenchymal stem cells facilitate pancreatic cancer progression by regulating specific secretory molecules through mutual cellular interaction.”, Journal of Cancer, Vol. 9, No. 16, pp. 2916-2929, 2018). Specifically, 6-week old NOD/SCID mice (CLEA Japan Inc., Japan) were raised under pathogen-free conditions. A cell mixture containing BxPC3 cells (1×10^5 cells) and hMSC (1×10^5 cells) was injected either subcutaneously or into the abdominal cavity of each mouse. By raising the mice for 6 weeks from the time of cell injection, scirrhous pancreatic cancer model mice were obtained having an abundantly developed cancer stroma that imitates the tissue in a human pancreatic cancer patient (see FIG. 7A).
[FAM]-tandem MSCPP106 (200 μg) was injected intravenously into each obtained scirrhous carcinoma model mouse. Subsequently, the pharmacokinetics of the peptide 30 minutes after the intravenous injection were analyzed by tissue analysis of the freshly dissected specimen of the peptide-administered mouse. FIG. 7B is a series of bright-field images (left) and fluorescent images (right) of various tissues and tumor tissues resected from the scirrhous carcinoma model mouse. […]

Data set [2] has as its system cancer stroma of the stomach scirrhous carcinoma (HSC58 cells and hMSC). Kind of data set: Absorption into cancer stroma of scirrhous stomach cancer mouse model. Type of data set: in vivo. The conditions noted are these: 300 μg intravenous, 60 minutes after injection, FIG. 10B. From the text: Stomach poorly differentiated scirrhous adenocarcinoma, which is an example of a typical scirrhous carcinoma, is classified by visual classification into type 4 stomach cancer, and this type 4 stomach cancer has an extremely poor prognosis, with a five-year survival rate of about at least 4% but not more than 16%. Accordingly, in order to investigate the application of [FAM]-tandem MSCPP106 to the CAF that develop in the scirrhous stroma of cancer other than pancreatic cancer, a scirrhous stomach cancer mouse transplanted model was produced, and the absorption into scirrhous cancer stroma other than pancreatic cancer was investigated. With the exceptions of using human stomach poorly differentiated adenocarcinoma HSC58 cells instead of the BxPC3 cells, and rearing the mouse for 40 days from the time of cell injection, the same method as Example 7 was used to obtain a scirrhous stomach cancer mouse model. The HSC58 cells are a low metastatic human scirrhous stomach cancer cell line. Subsequently, [FAM]-tandem MSCPP106 (300 μg) was injected intravenously into the obtained scirrhous cancer mouse model, and the in-vivo absorption pharmacokinetics of the peptide 60 minutes after the intravenous injection were analyzed by tissue analysis of the freshly dissected specimen of the peptide-administered mouse. […]

For the compound `CC(C)C[C@H](NC(=O)[C@H](Cc1c[nH]cn1)NC(=O)[C@H](CCCNC(=N)N)NC(=O)[C@H](Cc1ccccc1)NC(=O)[C@H](CC(C)C)NC(=O)[C@H](CCC(=O)O)NC(=O)[C@H](C)NC(=O)[C@H](CS)NC(=O)[C@H](CCCCN)NC(=O)CNC(=O)[C@H](CC(C)C)NC(=O)[C@H](Cc1c[nH]cn1)NC(=O)[C@H](CCCNC(=N)N)NC(=O)[C@H](Cc1ccccc1)NC(=O)[C@H](CC(C)C)NC(=O)[C@H](CCC(=O)O)NC(=O)[C@H](C)NC(=O)[C@H](CS)NC(=O)[C@H](CCCCN)NC(=O)c1ccc2c(c1)C(=O)OC21c2ccc(O)cc2Oc2cc(O)ccc21)C(=O)O` [[FAM]-tandem MSCPP106] (5FAM-KCAELFRHLGKCAELFRHL-OH), the “absorption into the cancer stroma (fibrous stroma) inside tumor tissue” value in data set [1] is “strong absorption”. The “absorption into the cancer stroma of the stomach scirrhous carcinoma” value in data set [2] was “strong selective absorption”.

Values taken from patent US12678511B2, “Peptide and use thereof” (Kansai Medical University Educational Corgoration, priority 2019, dated 2026).
